Data published in patent US20240360194A1, “New Peptides as Potent and Selective GIP Receptor Agonists” (Sanofi, priority 2021, published 2024).
≈ marks a conversion by molar mass, not a printed value. Like-named read-outs stand apart in the source and are kept apart here.

Columns and labels:
[1] = Solubility assessment (UHPLC-UV of supernatant, target 10 mg/ml); type: physicochemical; conditions: read-out: Soluble amount
How it was run: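 Peptides at 10 mg/ml (purity-corrected) in 100 mM phosphate pH 7.4, optionally with 2.7 mg/ml m-cresol; gentle agitation 1 h, then 5° C. overnight (24 h). Supernatant after 15 min centrifugation at 2500 RCF quantified by UHPLC-UV, with sequence-based extinction coefficients.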

[2] = target: T1, human GIP receptor (Homo sapiens, UniProt P48546); test: In vitro cellular cAMP assay for GIP receptor efficacy (human adipocytes); type: cell-based; conditions: for EC50: read-out: hGIPR EC50; for Emax: read-out: hGIPR Emax
T1 construct: human adipocytes endogenously expressing the human GIP receptor; host or cells: human preadipocytes (Lonza) differentiated to adipocytes
T1 sequence (P48546 22-466): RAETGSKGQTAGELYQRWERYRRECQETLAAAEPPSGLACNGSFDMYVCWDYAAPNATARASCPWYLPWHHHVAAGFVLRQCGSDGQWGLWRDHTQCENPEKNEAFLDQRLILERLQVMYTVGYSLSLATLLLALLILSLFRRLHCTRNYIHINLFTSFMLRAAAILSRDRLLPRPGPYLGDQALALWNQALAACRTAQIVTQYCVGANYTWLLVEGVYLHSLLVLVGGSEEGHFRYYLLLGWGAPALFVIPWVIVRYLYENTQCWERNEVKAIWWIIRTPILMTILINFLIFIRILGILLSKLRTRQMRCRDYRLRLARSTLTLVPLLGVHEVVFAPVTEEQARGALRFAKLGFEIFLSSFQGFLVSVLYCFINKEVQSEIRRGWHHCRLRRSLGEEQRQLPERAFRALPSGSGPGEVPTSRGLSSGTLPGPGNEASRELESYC
How it was run: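 Human preadipocytes expanded, then differentiated 6 days (insulin, dexamethasone, PPARγ agonist, 200 μM IBMX, L-thyroxine) before plating at 5000 cells/well. Test compound applied 30 min at room temperature; cAMP measured by HTRF after 1 h with lysis-buffer reagents, read as 665/620 nm fluorescence ratio.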

[3] = target: T2, human GLP-1 receptor (hGLP-1R) (Homo sapiens, UniProt P43220); test: In vitro cellular cAMP assay for GLP-1 receptor efficacy (HEK-293 cell line over-expressing receptor); type: cell-based; conditions: HEK-293, 0.1% BSA
T2 sequence (P43220 24-463): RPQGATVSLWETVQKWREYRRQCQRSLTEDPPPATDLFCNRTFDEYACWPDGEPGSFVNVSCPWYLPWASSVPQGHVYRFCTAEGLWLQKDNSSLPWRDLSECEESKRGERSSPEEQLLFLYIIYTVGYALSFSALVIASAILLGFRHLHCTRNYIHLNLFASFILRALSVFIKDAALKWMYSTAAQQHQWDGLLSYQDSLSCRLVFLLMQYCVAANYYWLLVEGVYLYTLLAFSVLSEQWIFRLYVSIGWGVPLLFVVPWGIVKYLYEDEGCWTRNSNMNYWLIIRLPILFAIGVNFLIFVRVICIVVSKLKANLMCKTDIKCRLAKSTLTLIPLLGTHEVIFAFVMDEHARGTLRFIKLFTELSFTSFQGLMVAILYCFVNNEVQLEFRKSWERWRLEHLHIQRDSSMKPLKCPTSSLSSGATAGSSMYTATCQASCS

[4] = target: T2, human GLP-1 receptor (hGLP-1R); test: Binding assay, displacement of [125I]GLP-1 from HEK-293 membranes over-expressing GLP-1R (SPA); conditions: [125I]GLP-1 displacement
Description: (1) Preparation of Membranes from HEK-293 Cells Over-Expressing GIPR or GLP-1R
HEK-293 cells recombinantly over-expressing GIPR or GLP-1R were grown to 50% confluency, washed with warm 1×PBS (Gibco) and detached in HEPES/EDTA-buffer (100 mM HEPES pH 7.5, 5 mM EDTA). Cells were harvested by centrifugation at 4° C. and 3000×g and the pellets were stored at −80° C. until further processing.
After thawing on ice, pellets were resuspended in HEPES/EDTA-buffer and homogenized on ice for 1 min using Ultra-Turray T25. After subsequent sonification the cell debris was removed by centrifugation at 1000×g and 4° C. Supernatants were then ultra-centrifuged at 100000×g and 4° C. under vacuum for 30 min. Pellets were resuspended in HEPES/EDTA/NaCl-buffer (20 mM HEPES, 1 mM EDTA, 150 mM NaCl; add 1 Complete Mini Protease inhibitor cocktail to 10 ml buffer) and protein content was determined via BCA-Protein assay.
(2) Measurement of Binding Activity of Test Compounds to Human GIPR or GLP-1R

[5] = target: T3, human GIP receptor (hGIPR) (Homo sapiens, UniProt P48546); test: In vitro cellular cAMP assay for GIP receptor efficacy (HEK-293 cell line over-expressing receptor); type: cell-based; conditions: EC50 hGIPR 0.1% BSA, HEK-293, 0.1% BSA
T3 sequence (P48546 22-466): T1 sequence (P48546 22-466)

[6] = target: T3, human GIP receptor (hGIPR); test: Binding assay, displacement of [125I]GIP from HEK-293 membranes over-expressing GIPR (SPA); conditions: [125I]GIP displacement
How it was run: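 Membranes from HEK-293 cells over-expressing human GIPR or GLP-1R, isolated by homogenising, sonicating and ultracentrifuging at 100000×g into HEPES/EDTA/NaCl buffer with protease inhibitors, were used for binding.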

[7] = 100 mM phosphate buffer pH 7.4 (solubility buffer system A), pH 7.4, Solubility buffer system A: 100 mM phosphate buffer pH 7.4
[8] = pH 7.4, Solubility buffer system C: 100 mM phosphate buffer pH 7.4, 2.7 mg/ml m-cresol

Row | SMILES | solubility at 24 h [1, 7] | EC50 [2] | Emax [2] | EC50 [3] | IC50 [4] | EC50 [5] | IC50 [6] | solubility at 24 h [1, 8]
1 | CC[C@H](C)[C@H](NC(=O)[C@H](Cc1ccccc1)NC(=O)[C@H](CCC(=O)O)NC(=O)[C@H](CCC(=O)O)NC(=O)[C@H](CCC(N)=O)NC(=O)[C@H](Cc1c[nH]cn1)NC(=O)[C@@H](NC(=O)[C@H](CCCNC(=N)N)NC(=O)[C@H](CC(=O)O)NC(=O)[C@H](CCCCNC(=O)COCCOCCNC(=O)COCCOCCNC(=O)CC[C@H](NC(=O)CCCCCCCCCCCCCCCCCCC(=O)O)C(=O)O)NC(=O)C(C)(C)NC(=O)[C@@H](NC(=O)[C@H](CO)NC(=O)[C@H](CC(C)C)NC(=O)[C@H](CC(=O)O)NC(=O)[C@H](CO)NC(=O)[C@@H](NC(=O)[C@H](Cc1ccccc1)NC(=O)[C@@H](NC(=O)CNC(=O)[C@H](CCC(=O)O)NC(=O)C(C)(C)NC(=O)[C@@H](N)Cc1ccc(O)cc1)[C@@H](C)O)[C@@H](C)CC)[C@@H](C)CC)[C@@H](C)CC)C(=O)N[C@@H](CCC(=O)O)C(=O)N[C@@H](Cc1c[nH]c2ccccc12)C(=O)N[C@@H](CC(C)C)C(=O)N[C@@H](CC(C)C)C(=O)N[C@@H](C)C(=O)N[C@@H](CCC(N)=O)C(=O)N[C@@H](CCCNC(=N)N)C(=O)NCC(N)=O [SEQ ID NO: 5, H2N-Y-Aib-E-G-T-F-I-S-D-L-S-I-Aib-K[{AEEA}2-gGlu-C20OH]-D-R-I-H-Q-E-E-F-I-E-W-L-L-A-Q-R-G-NH2] | 5200 µg/mL (≈ 1180 µM) | 2.1 nM | 114% | > 10 nM | 236 nM | 0.0518 nM | 0.7 nM | –
2 | CC[C@H](C)[C@H](NC(=O)[C@H](CCCNC(=N)N)NC(=O)[C@H](CC(=O)O)NC(=O)[C@H](CCCCNC(=O)CN(C)C(=O)CN(C)C(=O)CN(C)C(=O)CC[C@H](NC(=O)CCCCCCCCCCCCCCCCC(=O)O)C(=O)O)NC(=O)C(C)(C)NC(=O)[C@@H](NC(=O)[C@H](CO)NC(=O)[C@H](CC(C)C)NC(=O)[C@H](CC(=O)O)NC(=O)[C@H](CO)NC(=O)[C@@H](NC(=O)[C@H](Cc1ccccc1)NC(=O)[C@@H](NC(=O)CNC(=O)[C@H](CCC(=O)O)NC(=O)C(C)(C)NC(=O)[C@@H](N)Cc1ccc(O)cc1)[C@@H](C)O)[C@@H](C)CC)[C@@H](C)CC)C(=O)N[C@@H](Cc1c[nH]cn1)C(=O)N[C@@H](CCC(N)=O)C(=O)NC(C)(C)C(=O)N[C@@H](CCC(=O)O)C(=O)N[C@@H](Cc1ccccc1)C(=O)N[C@H](C(=O)N[C@@H](CCC(=O)O)C(=O)N[C@@H](Cc1c[nH]c2ccccc12)C(=O)N[C@@H](CC(C)C)C(=O)N[C@@H](CC(C)C)C(=O)N[C@@H](C)C(=O)N[C@@H](CCC(N)=O)C(=O)N[C@@H](CCCNC(=N)N)C(=O)NCC(N)=O)[C@@H](C)CC [SEQ ID NO: 8, H2N-Y-Aib-E-G-T-F-I-S-D-L-S-I-Aib-K[{N-MeGly}3-gGlu-C18OH]-D-R-I-H-Q-Aib-E-F-I-E-W-L-L-A-Q-R-G-NH2] | > 10700 µg/mL | 0.7 nM | 128% | > 10 nM | 139 nM | 0.00745 nM | 0.1 nM | 1800 µg/mL (≈ 423 µM)
3 | CC[C@H](C)[C@H](NC(=O)[C@H](CCCNC(=N)N)NC(=O)[C@H](CC(=O)O)NC(=O)[C@H](CCCCNC(=O)COCCOCCNC(=O)COCCOCCNC(=O)CC[C@H](NC(=O)CC[C@H](NC(=O)CCCCCCCCCCCCCCCCC(=O)O)C(=O)O)C(=O)O)NC(=O)C(C)(C)NC(=O)[C@@H](NC(=O)[C@H](CO)NC(=O)[C@H](CC(C)C)NC(=O)[C@H](CC(=O)O)NC(=O)[C@H](CO)NC(=O)[C@@H](NC(=O)[C@H](Cc1ccccc1)NC(=O)[C@@H](NC(=O)CNC(=O)[C@H](CCC(=O)O)NC(=O)C(C)(C)NC(=O)[C@@H](N)Cc1ccc(O)cc1)[C@@H](C)O)[C@@H](C)CC)[C@@H](C)CC)C(=O)N[C@@H](Cc1c[nH]cn1)C(=O)N[C@@H](CCC(N)=O)C(=O)NC(C)(C)C(=O)N[C@@H](CCC(=O)O)C(=O)N[C@@H](Cc1ccccc1)C(=O)N[C@H](C(=O)N[C@@H](CCC(=O)O)C(=O)N[C@@H](Cc1c[nH]c2ccccc12)C(=O)N[C@@H](CC(C)C)C(=O)N[C@@H](CC(C)C)C(=O)N[C@@H](C)C(=O)N[C@@H](CCC(N)=O)C(=O)N[C@@H](CCCNC(=N)N)C(=O)NCC(N)=O)[C@@H](C)CC [SEQ ID NO: 9, H2N-Y-Aib-E-G-T-F-I-S-D-L-S-I-Aib-K[{AEEA}2-{gGlu}2-C18OH]-D-R-I-H-Q-Aib-E-F-I-E-W-L-L-A-Q-R-G-NH2] | > 10200 µg/mL | 0.8 nM | 108% | > 10 nM | 224 nM | 0.00917 nM | 0.6 nM | 7700 µg/mL (≈ 1720 µM)

Further lines, results first:

Row | solubility at 24 h [1, 7] | EC50 [2] | Emax [2] | EC50 [3] | IC50 [4] | EC50 [5] | IC50 [6] | solubility at 24 h [1, 8] | SMILES
4 | 9100 µg/mL (≈ 2160 µM) | 0.4 nM | 121% | > 10 nM | 106 nM | 0.00964 nM | 0.1 nM | 4000 µg/mL (≈ 949 µM) | CC[C@H](C)[C@H](NC(=O)[C@H](CCCNC(=N)N)NC(=O)[C@H](CC(=O)O)NC(=O)[C@H](CCCCNC(=O)CNC(=O)CNC(=O)CNC(=O)CC[C@H](NC(=O)CCCCCCCCCCCCCCCCC(=O)O)C(=O)O)NC(=O)C(C)(C)NC(=O)[C@@H](NC(=O)[C@H](CO)NC(=O)[C@H](CC(C)C)NC(=O)[C@H](CC(=O)O)NC(=O)[C@H](CO)NC(=O)[C@@H](NC(=O)[C@H](Cc1ccccc1)NC(=O)[C@@H](NC(=O)CNC(=O)[C@H](CCC(=O)O)NC(=O)C(C)(C)NC(=O)[C@@H](N)Cc1ccc(O)cc1)[C@@H](C)O)[C@@H](C)CC)[C@@H](C)CC)C(=O)N[C@@H](Cc1c[nH]cn1)C(=O)N[C@@H](CCC(N)=O)C(=O)NC(C)(C)C(=O)N[C@@H](CCC(=O)O)C(=O)N[C@@H](Cc1ccccc1)C(=O)N[C@H](C(=O)N[C@@H](CCC(=O)O)C(=O)N[C@@H](Cc1c[nH]c2ccccc12)C(=O)N[C@@H](CC(C)C)C(=O)N[C@@H](CC(C)C)C(=O)N[C@@H](C)C(=O)N[C@@H](CCC(N)=O)C(=O)N[C@@H](CCCNC(=N)N)C(=O)NCC(N)=O)[C@@H](C)CC [SEQ ID NO: 7, H2N-Y-Aib-E-G-T-F-I-S-D-L-S-I-Aib-K[{Gly}3-gGlu-C18OH]-D-R-I-H-Q-Aib-E-F-I-E-W-L-L-A-Q-R-G-NH2]
5 | – | – | – | – | 116 nM | 0.0285 nM | 0.9 nM | – | CC[C@H](C)[C@H](NC(=O)[C@H](Cc1ccccc1)NC(=O)[C@H](CCC(=O)O)NC(=O)[C@H](CCC(=O)O)NC(=O)[C@H](CCC(N)=O)NC(=O)[C@H](Cc1c[nH]cn1)NC(=O)[C@@H](NC(=O)[C@H](CCCNC(=N)N)NC(=O)[C@H](CC(=O)O)NC(=O)[C@H](CCCCNC(=O)COCCOCCNC(=O)COCCOCCNC(=O)CC[C@H](NC(=O)CCCCCCCCCCCCCCCCC(=O)O)C(=O)O)NC(=O)C(C)(C)NC(=O)[C@@H](NC(=O)[C@H](CO)NC(=O)[C@H](CC(C)C)NC(=O)[C@H](CC(=O)O)NC(=O)[C@H](CO)NC(=O)[C@@H](NC(=O)[C@H](Cc1ccccc1)NC(=O)[C@@H](NC(=O)CNC(=O)[C@H](CCC(=O)O)NC(=O)C(C)(C)NC(=O)[C@@H](N)Cc1ccc(O)cc1)[C@@H](C)O)[C@@H](C)CC)[C@@H](C)CC)[C@@H](C)CC)C(=O)N[C@@H](CCC(=O)O)C(=O)N[C@@H](Cc1c[nH]c2ccccc12)C(=O)N[C@@H](CC(C)C)C(=O)N[C@@H](CC(C)C)C(=O)N[C@@H](C)C(=O)N[C@@H](CCC(N)=O)C(=O)N[C@@H](CCCNC(=N)N)C(=O)NCC(=O)O [SEQ ID NO: 13, H2N-Y-Aib-E-G-T-F-I-S-D-L-S-I-Aib-K[{AEEA}2-gGlu-C18OH]-D-R-I-H-Q-E-E-F-I-E-W-L-L-A-Q-R-G-OH]
